Holding throughout (assay): relative viability (nuclei count vs DMSO), 5 days (fraction); higher = more cells survive
Compound in the test “4EGI-1 + Crizotinib”: O=C(O)C(Cc1ccccc1[N+](=O)[O-])=NNc1nc(-c2ccc(Cl)c(Cl)c2)cs1 (mixture of isomers) [4EGI-1] + C[C@@H](Oc1cc(-c2cnn(C3CCNCC3)c2)cnc1N)c1c(Cl)ccc(F)c1Cl [Crizotinib] (partner 1 µM)
A digest of the protocol:
(§1)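 Five library-drug doses in √10 steps were combined with a fixed anchor-drug dose, or a single drug was given alone, by pin tool to lung cancer cell lines in 1536-well plates the day after seeding. Nuclei were stained and counted after 5 days. Relative viability is the nuclei count in treated wells over that in vehicle wells, taken as the median of duplicate plates.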

Compound in the test “XMD8-85 + AZD7762”: CN1CCN(CC1)C2=CC(=C(C=C2)NC3=NC=C4C(=N3)N(C5=CC=CC=C5C(=O)N4C)C)OC [XMD8-85] + NC(=O)Nc1cc(-c2cccc(F)c2)sc1C(=O)N[C@H]1CCCNC1 [AZD7762] (partner 0.2 µM)
Put shortly:
as §1

Compound in the test “XMD8-85 + Olaparib”: CN1CCN(CC1)C2=CC(=C(C=C2)NC3=NC=C4C(=N3)N(C5=CC=CC=C5C(=O)N4C)C)OC [XMD8-85] + O=C(c1cc(Cc2n[nH]c(=O)c3ccccc23)ccc1F)N1CCN(C(=O)C2CC2)CC1 [Olaparib] (partner 8 µM)
Put shortly:
as §1

Compound in the test “4EGI-1 + Foretinib”: O=C(O)C(Cc1ccccc1[N+](=O)[O-])=NNc1nc(-c2ccc(Cl)c(Cl)c2)cs1 (mixture of isomers) [4EGI-1] + COc1cc2c(Oc3ccc(NC(=O)C4(C(=O)Nc5ccc(F)cc5)CC4)cc3F)ccnc2cc1OCCCN1CCOCC1 [Foretinib] (partner 0.25 µM)
A digest of the protocol:
as §1

The text below walks through data of the supplement of paper PMC10307832.

Turning to NCI-H650, the relative viability in the test with 4EGI-1 + Crizotinib (first compound 0.5 µM) worked out at 0.847; with 4EGI-1 + Crizotinib (first compound 5 µM) it was 0.811; with 4EGI-1 + Crizotinib (first compound 15.81 µM), 0.596; with 4EGI-1 + Crizotinib (first compound 50 µM) it was 0.59; with XMD8-85 + AZD7762 (first compound 0.08 µM), 0.92; in the test with XMD8-85 + AZD7762 (first compound 0.253 µM), 0.991. Further, the relative viability was 1 with XMD8-85 + AZD7762 (first compound 0.8 µM); 0.829 in the test with XMD8-85 + AZD7762 (first compound 2.53 µM); 0.781 with XMD8-85 + AZD7762 (first compound 8 µM); 0.403 in the test with XMD8-85 + Olaparib (first compound 0.08 µM); 0.395 with XMD8-85 + Olaparib (first compound 0.253 µM); 0.375 with XMD8-85 + Olaparib (first compound 0.8 µM). Also, the relative viability stood at 0.387 in the test with XMD8-85 + Olaparib (first compound 2.53 µM); 0.279 in the test with XMD8-85 + Olaparib (first compound 8 µM); 1.13 in the test with 4EGI-1 + Foretinib (first compound 0.5 µM); 1 in the test with 4EGI-1 + Foretinib (first compound 5 µM); 0.958 with 4EGI-1 + Foretinib (first compound 15.81 µM); 0.897 with 4EGI-1 + Foretinib (first compound 50 µM).

NCI-H1651: the relative viability in the test with 4EGI-1 + Crizotinib (first compound 0.5 µM) is 0.853; with 4EGI-1 + Crizotinib (first compound 1.581 µM), 0.823; with 4EGI-1 + Crizotinib (first compound 5 µM), 0.911; with 4EGI-1 + Crizotinib (first compound 15.81 µM), 0.803; in the test with 4EGI-1 + Crizotinib (first compound 50 µM) it was 0.836; with XMD8-85 + AZD7762 (first compound 0.08 µM) it was 0.46. For the same cell line, the relative viability came to 0.431 in the test with XMD8-85 + AZD7762 (first compound 0.253 µM); 0.47 in the test with XMD8-85 + AZD7762 (first compound 0.8 µM); 0.433 in the test with XMD8-85 + AZD7762 (first compound 8 µM); 0.166 with XMD8-85 + Olaparib (first compound 0.08 µM); 0.19 with XMD8-85 + Olaparib (first compound 0.253 µM); 0.181 with XMD8-85 + Olaparib (first compound 0.8 µM). Further, the relative viability with XMD8-85 + Olaparib (first compound 2.53 µM) came out at 0.172; with XMD8-85 + Olaparib (first compound 8 µM), 0.16; with 4EGI-1 + Foretinib (first compound 0.5 µM) it was 0.893; with 4EGI-1 + Foretinib (first compound 1.581 µM), 0.608; with 4EGI-1 + Foretinib (first compound 5 µM) it was 0.818; in the test with 4EGI-1 + Foretinib (first compound 15.81 µM), 0.729. Moreover, the relative viability with 4EGI-1 + Foretinib (first compound 50 µM) stood at 0.784.

Regarding H3255, the relative viability in the test with 4EGI-1 + Crizotinib (first compound 0.5 µM) worked out at 1.14; with 4EGI-1 + Crizotinib (first compound 1.581 µM), 0.573; with 4EGI-1 + Crizotinib (first compound 5 µM), 0.856; with 4EGI-1 + Crizotinib (first compound 15.81 µM) it was 0.612; with 4EGI-1 + Crizotinib (first compound 50 µM) it was 0.541; with XMD8-85 + AZD7762 (first compound 0.08 µM), 0.979. Moreover, the relative viability in the test with XMD8-85 + AZD7762 (first compound 0.253 µM) was 0.868; with XMD8-85 + AZD7762 (first compound 0.8 µM), 0.894; with XMD8-85 + AZD7762 (first compound 2.53 µM), 0.925; with XMD8-85 + AZD7762 (first compound 8 µM) it was 0.554; with XMD8-85 + Olaparib (first compound 0.08 µM), 0.581; with XMD8-85 + Olaparib (first compound 0.253 µM) it was 0.603. Further, the relative viability with XMD8-85 + Olaparib (first compound 0.8 µM) was found to be 0.512; with XMD8-85 + Olaparib (first compound 2.53 µM), 0.504; with XMD8-85 + Olaparib (first compound 8 µM), 0.369; with 4EGI-1 + Foretinib (first compound 0.5 µM), 0.982; with 4EGI-1 + Foretinib (first compound 1.581 µM), 0.788; in the test with 4EGI-1 + Foretinib (first compound 5 µM) it was 0.907. Also, the relative viability with 4EGI-1 + Foretinib (first compound 15.81 µM) was 0.775; in the test with 4EGI-1 + Foretinib (first compound 50 µM), 0.823.

As for NCI-H1975, the relative viability with 4EGI-1 + Crizotinib (first compound 0.5 µM) came to 0.951; with 4EGI-1 + Crizotinib (first compound 1.581 µM) it was 0.889; in the test with 4EGI-1 + Crizotinib (first compound 5 µM), 0.939; with 4EGI-1 + Crizotinib (first compound 15.81 µM), 0.972; with 4EGI-1 + Crizotinib (first compound 50 µM), 0.636; with XMD8-85 + AZD7762 (first compound 0.08 µM), 0.742. The relative viability was determined as 0.656 in the test with XMD8-85 + AZD7762 (first compound 0.253 µM); 0.661 in the test with XMD8-85 + AZD7762 (first compound 0.8 µM); 0.653 with XMD8-85 + AZD7762 (first compound 2.53 µM); 0.547 with XMD8-85 + AZD7762 (first compound 8 µM); 0.774 in the test with XMD8-85 + Olaparib (first compound 0.08 µM); 0.784 with XMD8-85 + Olaparib (first compound 0.253 µM). The relative viability with XMD8-85 + Olaparib (first compound 0.8 µM) is 0.88; in the test with XMD8-85 + Olaparib (first compound 2.53 µM) it was 0.711; in the test with XMD8-85 + Olaparib (first compound 8 µM), 0.376; with 4EGI-1 + Foretinib (first compound 0.5 µM) it was 0.932; with 4EGI-1 + Foretinib (first compound 1.581 µM) it was 0.814; in the test with 4EGI-1 + Foretinib (first compound 5 µM), 1.01. Further, the relative viability in the test with 4EGI-1 + Foretinib (first compound 15.81 µM) was found to be 0.844; in the test with 4EGI-1 + Foretinib (first compound 50 µM), 0.729.

BEN: the relative viability in the test with 4EGI-1 + Crizotinib (first compound 0.5 µM) came out at 1.07; with 4EGI-1 + Crizotinib (first compound 1.581 µM), 1.1; in the test with 4EGI-1 + Crizotinib (first compound 5 µM), 0.885; with 4EGI-1 + Crizotinib (first compound 15.81 µM) it was 0.821; with 4EGI-1 + Crizotinib (first compound 50 µM), 0.796; with XMD8-85 + AZD7762 (first compound 0.08 µM), 0.831. Further, the relative viability in the test with XMD8-85 + AZD7762 (first compound 0.253 µM) was found to be 0.661; with XMD8-85 + AZD7762 (first compound 0.8 µM), 0.691; in the test with XMD8-85 + AZD7762 (first compound 2.53 µM), 0.653; with XMD8-85 + AZD7762 (first compound 8 µM), 0.463; with XMD8-85 + Olaparib (first compound 0.08 µM), 0.952; in the test with XMD8-85 + Olaparib (first compound 0.253 µM), 1.05. Besides, the relative viability in the test with XMD8-85 + Olaparib (first compound 0.8 µM) came to 0.947; with XMD8-85 + Olaparib (first compound 2.53 µM), 0.887; with XMD8-85 + Olaparib (first compound 8 µM), 0.613; with 4EGI-1 + Foretinib (first compound 0.5 µM) it was 0.694; with 4EGI-1 + Foretinib (first compound 1.581 µM), 0.474; with 4EGI-1 + Foretinib (first compound 5 µM), 0.781. The relative viability with 4EGI-1 + Foretinib (first compound 15.81 µM) was 0.753; with 4EGI-1 + Foretinib (first compound 50 µM) it was 0.524.

LC-2-ad: the relative viability in the test with 4EGI-1 + Crizotinib (first compound 0.5 µM) was 0.433; with 4EGI-1 + Crizotinib (first compound 5 µM), 0.451; in the test with 4EGI-1 + Crizotinib (first compound 15.81 µM), 0.343; in the test with 4EGI-1 + Crizotinib (first compound 50 µM), 0.411; in the test with XMD8-85 + AZD7762 (first compound 0.08 µM) it was 0.808; in the test with XMD8-85 + AZD7762 (first compound 0.253 µM) it was 0.837. Further, the relative viability in the test with XMD8-85 + AZD7762 (first compound 0.8 µM) was determined as 0.895; in the test with XMD8-85 + AZD7762 (first compound 2.53 µM), 0.779; with XMD8-85 + AZD7762 (first compound 8 µM), 0.596; with XMD8-85 + Olaparib (first compound 0.08 µM) it was 0.771; in the test with XMD8-85 + Olaparib (first compound 0.253 µM), 0.687; with XMD8-85 + Olaparib (first compound 0.8 µM), 0.701. For the same cell line, the relative viability worked out at 0.581 with XMD8-85 + Olaparib (first compound 2.53 µM); 0.415 with XMD8-85 + Olaparib (first compound 8 µM); 0.997 with 4EGI-1 + Foretinib (first compound 0.5 µM); 1.02 with 4EGI-1 + Foretinib (first compound 5 µM); 0.485 with 4EGI-1 + Foretinib (first compound 15.81 µM); 0.283 with 4EGI-1 + Foretinib (first compound 50 µM).

With NCI-H2085, the relative viability with 4EGI-1 + Crizotinib (first compound 0.5 µM) amounted to 0.916; in the test with 4EGI-1 + Crizotinib (first compound 1.581 µM), 0.901; with 4EGI-1 + Crizotinib (first compound 5 µM) it was 0.86; in the test with 4EGI-1 + Crizotinib (first compound 15.81 µM) it was 0.784; with 4EGI-1 + Crizotinib (first compound 50 µM), 0.578; with XMD8-85 + AZD7762 (first compound 0.08 µM) it was 0.851. Moreover, the relative viability with XMD8-85 + AZD7762 (first compound 0.253 µM) stood at 0.936; with XMD8-85 + AZD7762 (first compound 0.8 µM), 0.948; with XMD8-85 + AZD7762 (first compound 2.53 µM), 0.993; with XMD8-85 + AZD7762 (first compound 8 µM), 0.881; with XMD8-85 + Olaparib (first compound 0.08 µM), 0.729; with XMD8-85 + Olaparib (first compound 0.253 µM) it was 0.743. The relative viability with XMD8-85 + Olaparib (first compound 0.8 µM) was determined as 0.77; in the test with XMD8-85 + Olaparib (first compound 2.53 µM), 0.725; with XMD8-85 + Olaparib (first compound 8 µM), 0.699; in the test with 4EGI-1 + Foretinib (first compound 0.5 µM), 0.826; in the test with 4EGI-1 + Foretinib (first compound 1.581 µM) it was 1.02; in the test with 4EGI-1 + Foretinib (first compound 5 µM), 1.07. Besides, the relative viability in the test with 4EGI-1 + Foretinib (first compound 15.81 µM) came out at 0.814; with 4EGI-1 + Foretinib (first compound 50 µM), 0.541.
